# Active and inactive are the calls of the source. The calls are words filed in the database; no cut-off is given here.
# Legend:
# [1] = molecular target: CDK2/Cyclin A1 (Homo sapiens, UniProt P24941); type: protein-complex assay
# Description: Inhibition of CDK2/Cyclin A1 (unknown origin) at 1 uM using histone H1 as substrate preincubated for 20 mins followed by 33P-ATP addition and measured after 2 hrs by filter binding method
# [2] = molecular target: Receptor-type tyrosine-protein kinase FLT3 (Homo sapiens, UniProt P36888, ITD)
# [3] = molecular target: Cyclin-dependent kinase 1/cyclin B1 (Homo sapiens, UniProt P06493); experiment: Inhibition of CDK1/cyclin B1 (unknown origin) in presence of [32P]gammaATP by image analyser; type: protein-complex assay
# [4] = molecular target: Cyclin-dependent kinase 2/cyclin E1 (Homo sapiens, UniProt P24941); experiment: Inhibition of CDK2/cyclin E1 (unknown origin) in presence of [32P]gammaATP by image analyser; type: protein-complex assay
# [5] = molecular target: CDK2/Cyclin A2 (Homo sapiens, UniProt P24941); experiment: Inhibition of CDK2/cyclin A2 (unknown origin) in presence of [32P]gammaATP by image analyser; type: protein-complex assay
# [6] = molecular target: Cyclin-dependent kinase 4/cyclin D1 (Homo sapiens, UniProt P11802); experiment: Inhibition of CDK4/cyclin D1 (unknown origin) in presence of [32P]gammaATP by image analyser; type: protein-complex assay
# [7] = molecular target: CDK9/cyclin T1 (Homo sapiens, UniProt P50750); experiment: Inhibition of CDK9/cyclin T1 (unknown origin) in presence of [32P]gammaATP by image analyser; type: protein-complex assay
# [8] = molecular target: T1, Receptor-type tyrosine-protein kinase FLT3 (Homo sapiens, UniProt P36888); experiment: Inhibition of wild type FLT3 (unknown origin) using AGLT peptide substrate in presence of [32P]gammaATP by image analyser
# T1 sequence (P36888 whole entry): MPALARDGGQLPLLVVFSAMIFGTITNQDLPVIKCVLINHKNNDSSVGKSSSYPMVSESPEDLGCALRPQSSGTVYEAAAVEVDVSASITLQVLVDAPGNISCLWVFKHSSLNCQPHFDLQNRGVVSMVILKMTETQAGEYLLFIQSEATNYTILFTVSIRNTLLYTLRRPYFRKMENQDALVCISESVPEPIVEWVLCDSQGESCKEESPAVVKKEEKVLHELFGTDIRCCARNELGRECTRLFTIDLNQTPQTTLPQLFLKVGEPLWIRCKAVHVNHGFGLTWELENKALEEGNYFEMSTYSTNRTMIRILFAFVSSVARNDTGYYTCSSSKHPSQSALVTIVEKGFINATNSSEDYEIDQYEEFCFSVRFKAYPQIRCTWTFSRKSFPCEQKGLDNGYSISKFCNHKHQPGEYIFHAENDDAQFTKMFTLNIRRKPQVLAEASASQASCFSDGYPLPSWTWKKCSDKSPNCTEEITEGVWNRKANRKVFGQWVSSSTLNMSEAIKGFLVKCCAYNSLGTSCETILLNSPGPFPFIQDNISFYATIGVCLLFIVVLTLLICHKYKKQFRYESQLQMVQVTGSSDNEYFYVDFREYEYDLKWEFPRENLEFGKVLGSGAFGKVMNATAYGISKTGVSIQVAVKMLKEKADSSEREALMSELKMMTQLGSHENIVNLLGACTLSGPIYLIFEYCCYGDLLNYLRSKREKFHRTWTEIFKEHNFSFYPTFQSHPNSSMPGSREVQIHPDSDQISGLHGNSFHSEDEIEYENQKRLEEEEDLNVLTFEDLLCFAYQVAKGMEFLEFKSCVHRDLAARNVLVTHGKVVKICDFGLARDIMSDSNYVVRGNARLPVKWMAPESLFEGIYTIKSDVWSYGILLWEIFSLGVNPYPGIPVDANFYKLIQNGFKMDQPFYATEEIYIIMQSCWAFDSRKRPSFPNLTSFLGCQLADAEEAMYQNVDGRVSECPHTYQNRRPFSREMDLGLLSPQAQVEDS
# [9] = tested on: MOLM-13; experiment: Antiproliferative activity against human MOLM-13 cells assessed as cell death measured after 72 hrs by resazurin dye based assay; type: functional; details: MOLM-13, 72 h
# [10] = tested on: MOLM-14; experiment: Antiproliferative activity against human MOLM-14 cells assessed as cell death measured after 72 hrs by resazurin dye based assay; type: functional; details: MOLM-14, 72 h
# [11] = tested on: MOLM-14; experiment: Antiproliferative activity against human MOLM-14 cells harboring D835Y mutant assessed as cell death measured after 72 hrs by resazurin dye based assay; type: functional; details: MOLM-14, 72 h
# [12] = tested on: MOLM-14; experiment: Antiproliferative activity against human MOLM-14 cells harboring F691L mutant assessed as cell death measured after 72 hrs by resazurin dye based assay; type: functional; details: MOLM-14, 72 h
# [13] = tested on: SEM cells; experiment: Antiproliferative activity against human SEM cells assessed as cell death measured after 72 hrs by resazurin dye based assay; type: functional
# [14] = tested on: CCRF-CEM; experiment: Antiproliferative activity against human CCRF-CEM cells assessed as cell death measured after 72 hrs by resazurin dye based assay; type: functional
# [15] = tested on: THP-1; experiment: Antiproliferative activity against human THP-1 cells assessed as cell death measured after 72 hrs by resazurin dye based assay; type: functional; details: THP-1, 72 h
# [16] = tested on: U-937; experiment: Antiproliferative activity against human U-937 cells assessed as cell death measured after 72 hrs by resazurin dye based assay; type: functional; details: U-937, 72 h
# [17] = tested on: BaF3; experiment: Antiproliferative activity against mouse BaF3 cells assessed as cell death measured after 72 hrs by resazurin dye based assay; type: functional; details: BaF3, 72 h
# [18] = tested on: BaF3; experiment: Antiproliferative activity against mouse BaF3 cells harboring FLt3 ITD mutant assessed as cell death measured after 72 hrs by resazurin dye based assay; type: functional; details: BaF3, 72 h
# [19] = tested on: K562; experiment: cells; details: Homo sapiens, K562, 72 h
# Description: Antiproliferative activity against human K562 cells assessed as cell death measured after 72 hrs by resazurin dye based assay
# [20] = tested on: MV4-11; experiment: cells; details: Homo sapiens, MV4-11, 72 h
# Description: Antiproliferative activity against human MV4-11 cells assessed as cell death measured after 72 hrs by resazurin dye based assay
# [21] = molecular target: Receptor-type tyrosine-protein kinase FLT3 (Homo sapiens) (UniProt P36888); experiment: Inhibition of FLT3 autophosphorylation in human MV4-11 cells at 20 to 100 nM incubated for 1 hrs by Western blot analysis; type: cell-based; details: dose 20-100 nM
# [22] = molecular target: Receptor-type tyrosine-protein kinase FLT3 (Homo sapiens) (UniProt P36888); experiment: Inhibition of FLT3 in human MV4-11 cells assessed as STAT5 phosphorylation at Y694 at 20 to 100 nM incubated for 1 hrs by Western blot analysis; type: cell-based; details: dose 20-100 nM
# [23] = molecular target: Receptor-type tyrosine-protein kinase FLT3 (Homo sapiens) (UniProt P36888); experiment: Inhibition of FLT3 in human MV4-11 cells assessed as ERK1/2 phosphorylation at 20 to 100 nM incubated for 1 hrs by Western blot analysis; type: cell-based; details: dose 20-100 nM
# [24] = tested on: MV4-11; experiment: Induction of apoptosis in human MV4-11 cells assessed as caspase 3 activation using fluorescent substrate Ac-DEVD-AMC at 100 nM incubated for 24 hrs by Western blot analysis; type: functional, cell-based
# [25] = tested on: MV4-11; experiment: Induction of apoptosis in human MV4-11 cells assessed as caspase 7 activation using fluorescent substrate Ac-DEVD-AMC at 100 nM incubated for 24 hrs by Western blot analysis; type: functional, cell-based
# [26] = tested on: MV4-11; experiment: Induction of apoptosis in human MV4-11 cells assessed as increase in cleaved PARP1 level at 100 nM incubated for 24 hrs by Western blot analysis; type: functional, cell-based
# [27] = tested on: MV4-11; experiment: Induction of apoptosis in human MV4-11 cells assessed as decrease in MCL1 level at 100 nM incubated for 24 hrs by Western blot analysis; type: functional, cell-based
# [28] = tested on: MV4-11; experiment: Induction of apoptosis in human MV4-11 cells assessed as effect on Bcl2 level at 100 nM incubated for 24 hrs by Western blot analysis; type: functional, cell-based
# [29] = tested on: Receptor-type tyrosine-protein kinase FLT3 (Homo sapiens), P36888 [D835Y]; experiment: Inhibition of FLT3 D835Y (unknown origin) assessed as residual activity at 500 nM
# [30] = tested on: Receptor-type tyrosine-protein kinase FLT3 (Homo sapiens), P36888 [UNDEFINED MUTATION]; experiment: Inhibition of FLT3 ITD (unknown origin) assessed as residual activity at 500 nM
# [31] = molecular target: Leucine-rich repeat serine/threonine-protein kinase 2 (Homo sapiens) (UniProt Q5S007); experiment: Inhibition of LRRK2 (unknown origin) assessed as residual activity at 500 nM
# [32] = molecular target: Maternal embryonic leucine zipper kinase (Homo sapiens) (UniProt Q14680); experiment: Inhibition of MELK (unknown origin) assessed as residual activity at 500 nM
# [33] = molecular target: Dual specificity tyrosine-phosphorylation-regulated kinase 1B (Homo sapiens) (UniProt Q9Y463); experiment: Inhibition of DYRK1B (unknown origin) assessed as residual activity at 500 nM
# [34] = molecular target: Dual specificity protein kinase CLK1 (Homo sapiens) (UniProt P49759); experiment: Inhibition of CLK1 (unknown origin) assessed as residual activity at 500 nM
# [35] = molecular target: NT-3 growth factor receptor (Homo sapiens) (UniProt Q16288); experiment: Inhibition of TRKC (unknown origin) assessed as residual activity at 500 nM
# [36] = molecular target: MAP kinase-interacting serine/threonine-protein kinase 2 (Homo sapiens) (UniProt Q9HBH9); experiment: Inhibition of MNK2 (unknown origin) assessed as residual activity at 500 nM
# [37] = molecular target: Lymphokine-activated killer T-cell-originated protein kinase (Homo sapiens) (UniProt Q96KB5); experiment: Inhibition of TOPK (unknown origin) assessed as residual activity at 500 nM
# [38] = molecular target: Rho-associated protein kinase 2 (Homo sapiens) (UniProt O75116); experiment: Inhibition of ROCK2 (unknown origin) assessed as residual activity at 500 nM
# [39] = molecular target: Ribosomal protein S6 kinase alpha-4 (Homo sapiens) (UniProt O75676); experiment: Inhibition of MSK2 (unknown origin) assessed as residual activity at 500 nM
# [40] = molecular target: Ribosomal protein S6 kinase beta-1 (Homo sapiens) (UniProt P23443); experiment: Inhibition of p70S6K (unknown origin) assessed as residual activity at 500 nM
# [41] = molecular target: cGMP-dependent protein kinase 1 (Homo sapiens) (UniProt Q13976); experiment: Inhibition of PKG1alpha (unknown origin) assessed as residual activity at 500 nM
# [42] = molecular target: CDK2/Cyclin A1 (Homo sapiens) (UniProt P24941+P78396); experiment: Inhibition of CDK2/cyclin A1 (unknown origin) assessed as residual activity at 500 nM; type: protein-complex assay
# Chain of Cyclin-dependent kinase 1/cyclin B1 (P06493 whole entry): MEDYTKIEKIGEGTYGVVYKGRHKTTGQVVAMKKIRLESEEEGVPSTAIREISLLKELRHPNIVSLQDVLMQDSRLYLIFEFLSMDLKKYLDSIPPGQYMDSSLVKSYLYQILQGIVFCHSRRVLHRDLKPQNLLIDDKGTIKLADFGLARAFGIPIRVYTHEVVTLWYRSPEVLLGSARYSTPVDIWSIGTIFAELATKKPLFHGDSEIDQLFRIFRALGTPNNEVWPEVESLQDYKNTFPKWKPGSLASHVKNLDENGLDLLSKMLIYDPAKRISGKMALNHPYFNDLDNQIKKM
# Chain of Cyclin-dependent kinase 1/cyclin B1 (P14635 whole entry, further chain): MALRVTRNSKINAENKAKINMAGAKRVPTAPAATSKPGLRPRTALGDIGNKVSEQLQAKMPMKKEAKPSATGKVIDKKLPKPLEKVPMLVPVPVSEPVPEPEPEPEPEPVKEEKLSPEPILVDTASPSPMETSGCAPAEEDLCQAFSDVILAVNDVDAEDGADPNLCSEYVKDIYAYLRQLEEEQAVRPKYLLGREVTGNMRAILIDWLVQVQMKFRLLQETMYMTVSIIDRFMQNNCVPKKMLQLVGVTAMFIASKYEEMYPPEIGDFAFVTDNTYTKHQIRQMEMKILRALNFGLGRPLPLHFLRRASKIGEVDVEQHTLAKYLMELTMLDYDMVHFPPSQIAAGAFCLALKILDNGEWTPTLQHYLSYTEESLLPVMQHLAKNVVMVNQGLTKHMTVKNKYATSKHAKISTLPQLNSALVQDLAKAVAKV
# Chain of Cyclin-dependent kinase 4/cyclin D1 (P11802 whole entry): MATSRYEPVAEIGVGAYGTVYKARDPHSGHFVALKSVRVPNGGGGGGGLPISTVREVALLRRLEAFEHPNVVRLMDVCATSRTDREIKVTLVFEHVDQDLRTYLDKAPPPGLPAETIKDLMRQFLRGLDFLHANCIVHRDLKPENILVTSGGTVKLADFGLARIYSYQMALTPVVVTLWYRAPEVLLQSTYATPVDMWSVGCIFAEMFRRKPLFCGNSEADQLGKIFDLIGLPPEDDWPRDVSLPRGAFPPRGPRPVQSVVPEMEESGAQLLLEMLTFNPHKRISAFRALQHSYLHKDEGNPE
# Chain of Cyclin-dependent kinase 4/cyclin D1 (P24385 whole entry, further chain): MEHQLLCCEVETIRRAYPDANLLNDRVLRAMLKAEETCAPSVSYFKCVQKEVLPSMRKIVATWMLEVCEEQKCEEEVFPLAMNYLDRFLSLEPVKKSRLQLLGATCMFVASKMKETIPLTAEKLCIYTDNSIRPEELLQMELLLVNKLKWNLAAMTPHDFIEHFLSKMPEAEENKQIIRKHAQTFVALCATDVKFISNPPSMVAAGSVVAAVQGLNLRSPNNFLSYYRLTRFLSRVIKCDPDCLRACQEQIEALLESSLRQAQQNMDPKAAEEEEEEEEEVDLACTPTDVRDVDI
# Chain of CDK9/cyclin T1 (O60563 whole entry): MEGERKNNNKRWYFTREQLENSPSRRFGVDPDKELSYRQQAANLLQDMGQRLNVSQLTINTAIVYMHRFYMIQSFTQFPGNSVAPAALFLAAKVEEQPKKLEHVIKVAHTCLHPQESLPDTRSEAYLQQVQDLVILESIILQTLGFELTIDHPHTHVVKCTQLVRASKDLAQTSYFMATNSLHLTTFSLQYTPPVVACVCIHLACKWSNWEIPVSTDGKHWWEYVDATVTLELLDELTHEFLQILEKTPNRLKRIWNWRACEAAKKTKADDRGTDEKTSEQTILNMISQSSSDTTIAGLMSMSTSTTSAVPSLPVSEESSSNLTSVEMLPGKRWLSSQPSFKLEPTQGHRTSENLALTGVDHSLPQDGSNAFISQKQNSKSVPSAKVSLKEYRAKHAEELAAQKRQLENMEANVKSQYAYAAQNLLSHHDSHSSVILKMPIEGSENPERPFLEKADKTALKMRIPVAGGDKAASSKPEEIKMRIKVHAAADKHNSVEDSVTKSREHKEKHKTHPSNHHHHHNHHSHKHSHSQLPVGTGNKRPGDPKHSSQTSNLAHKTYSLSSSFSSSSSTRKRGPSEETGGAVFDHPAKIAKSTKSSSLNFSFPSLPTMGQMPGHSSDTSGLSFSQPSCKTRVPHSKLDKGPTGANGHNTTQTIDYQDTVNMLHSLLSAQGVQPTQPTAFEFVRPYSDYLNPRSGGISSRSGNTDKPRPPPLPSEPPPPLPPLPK
# Chain of CDK9/cyclin T1 (P50750 whole entry): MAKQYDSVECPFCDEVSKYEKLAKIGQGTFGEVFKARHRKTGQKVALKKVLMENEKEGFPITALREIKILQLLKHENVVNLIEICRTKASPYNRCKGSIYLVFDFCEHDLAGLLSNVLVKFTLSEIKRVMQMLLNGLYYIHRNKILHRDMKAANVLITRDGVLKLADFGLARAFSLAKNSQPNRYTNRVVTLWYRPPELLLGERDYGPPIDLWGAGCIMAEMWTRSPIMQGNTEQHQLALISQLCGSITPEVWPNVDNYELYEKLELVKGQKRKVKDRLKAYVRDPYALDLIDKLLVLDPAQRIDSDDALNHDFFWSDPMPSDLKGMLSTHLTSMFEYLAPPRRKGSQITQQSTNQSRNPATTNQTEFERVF
# Chain of Lymphokine-activated killer T-cell-originated protein kinase (Homo sapiens) (Q96KB5 whole entry): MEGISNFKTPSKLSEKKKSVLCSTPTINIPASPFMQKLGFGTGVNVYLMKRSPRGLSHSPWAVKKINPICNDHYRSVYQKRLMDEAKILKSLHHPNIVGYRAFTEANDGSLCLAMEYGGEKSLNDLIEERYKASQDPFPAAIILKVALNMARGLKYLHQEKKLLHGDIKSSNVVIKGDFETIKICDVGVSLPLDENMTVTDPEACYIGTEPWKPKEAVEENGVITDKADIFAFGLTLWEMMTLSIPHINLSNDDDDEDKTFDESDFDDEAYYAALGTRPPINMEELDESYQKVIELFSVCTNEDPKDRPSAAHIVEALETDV
# Chain of Ribosomal protein S6 kinase alpha-4 (Homo sapiens) (O75676 whole entry, looked up): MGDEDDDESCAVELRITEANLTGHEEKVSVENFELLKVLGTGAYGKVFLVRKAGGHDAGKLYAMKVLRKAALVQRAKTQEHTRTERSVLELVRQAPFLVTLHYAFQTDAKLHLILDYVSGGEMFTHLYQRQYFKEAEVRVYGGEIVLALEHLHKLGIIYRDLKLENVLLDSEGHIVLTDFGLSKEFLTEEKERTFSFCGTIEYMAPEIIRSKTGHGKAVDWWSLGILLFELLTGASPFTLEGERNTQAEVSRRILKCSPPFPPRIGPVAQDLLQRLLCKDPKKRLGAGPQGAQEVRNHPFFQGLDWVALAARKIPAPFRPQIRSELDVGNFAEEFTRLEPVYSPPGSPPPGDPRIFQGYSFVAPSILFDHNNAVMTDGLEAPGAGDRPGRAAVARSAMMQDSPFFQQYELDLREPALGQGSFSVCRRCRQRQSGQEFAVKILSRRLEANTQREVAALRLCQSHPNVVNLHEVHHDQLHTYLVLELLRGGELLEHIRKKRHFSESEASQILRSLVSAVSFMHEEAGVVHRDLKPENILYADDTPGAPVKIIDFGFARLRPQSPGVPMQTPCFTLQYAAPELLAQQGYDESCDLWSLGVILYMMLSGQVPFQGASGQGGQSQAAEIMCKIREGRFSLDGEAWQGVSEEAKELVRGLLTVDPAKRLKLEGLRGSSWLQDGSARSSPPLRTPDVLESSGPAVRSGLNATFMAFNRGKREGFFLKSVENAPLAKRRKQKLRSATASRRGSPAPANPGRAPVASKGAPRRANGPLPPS
# Chain of MAP kinase-interacting serine/threonine-protein kinase 2 (Homo sapiens) (Q9HBH9 whole entry, looked up): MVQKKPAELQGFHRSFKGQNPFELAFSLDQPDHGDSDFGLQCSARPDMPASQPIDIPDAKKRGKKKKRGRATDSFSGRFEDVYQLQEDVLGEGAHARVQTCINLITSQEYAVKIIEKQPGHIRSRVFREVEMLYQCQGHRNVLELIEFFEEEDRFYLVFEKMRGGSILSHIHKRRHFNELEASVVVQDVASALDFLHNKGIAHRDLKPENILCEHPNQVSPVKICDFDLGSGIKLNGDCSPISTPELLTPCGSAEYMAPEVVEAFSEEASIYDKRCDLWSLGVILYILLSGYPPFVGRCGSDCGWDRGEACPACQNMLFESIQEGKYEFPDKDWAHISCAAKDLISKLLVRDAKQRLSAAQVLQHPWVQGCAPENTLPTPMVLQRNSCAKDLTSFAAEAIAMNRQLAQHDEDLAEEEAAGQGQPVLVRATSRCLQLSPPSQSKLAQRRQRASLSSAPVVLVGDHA
# Chain of Dual specificity protein kinase CLK1 (Homo sapiens) (P49759 whole entry, looked up): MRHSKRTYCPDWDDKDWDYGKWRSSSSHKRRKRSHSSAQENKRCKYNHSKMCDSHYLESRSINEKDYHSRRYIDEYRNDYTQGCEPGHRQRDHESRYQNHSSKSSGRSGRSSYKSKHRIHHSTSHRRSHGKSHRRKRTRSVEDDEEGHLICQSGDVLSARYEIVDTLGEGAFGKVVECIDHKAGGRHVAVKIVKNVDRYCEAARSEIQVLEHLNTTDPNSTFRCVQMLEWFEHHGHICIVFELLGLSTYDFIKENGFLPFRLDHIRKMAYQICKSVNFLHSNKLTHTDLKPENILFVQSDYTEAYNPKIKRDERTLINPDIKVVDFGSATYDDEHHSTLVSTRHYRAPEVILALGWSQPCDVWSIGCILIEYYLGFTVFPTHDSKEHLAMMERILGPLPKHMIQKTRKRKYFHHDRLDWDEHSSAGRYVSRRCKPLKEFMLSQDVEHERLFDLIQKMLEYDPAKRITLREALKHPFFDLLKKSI
Compound,IC50 [1] [nM],IC50 [2] [nM],IC50 [3] [nM],IC50 [4] [nM],IC50 [5] [nM],IC50 [6] [nM],IC50 [7] [nM],IC50 [8] [nM],IC50 [19] [nM],IC50 [20] [nM],IC50 [9] [nM],IC50 [10] [nM],IC50 [11] [nM],IC50 [12] [nM],IC50 [13] [nM],IC50 [14] [nM],IC50 [15] [nM],IC50 [16] [nM],IC50 [17] [nM],IC50 [18] [nM],other results
Fc1cc2[nH]ncc2c2c3c(c(-c4cn[nH]c4)nc12)CCCC3,39,43,119,55,39,> 1000,196,21,3280,22,49,79,46,50,1050,5480,1900,3170,15100,814,
OCc1n[nH]c2ccc3nc(-c4c[nH]nc4C(F)(F)F)c4c(c3c12)CCCC4,141,3,203,102,141,> 1000,> 1000,32,9720,30,18,36,16,91,437,5210,16900,4820,16100,124,inhibition [21]: Active; inhibition [22]: Active; inhibition [23]: inactive; Activity [24]: Active; Activity [25]: Active; Activity [26]: Active; Activity [27]: Active; Activity [28]: Active
Fc1cc2[nH]ncc2c2c3c(c(-c4c[nH]nc4C(F)(F)F)nc12)C1CCC3C1 (centres undefined),49,16,72,31,49,> 1000,980,28,7590,49,6,24,13,65,150,8120,3150,2240,5820,35,inhibition [21]: Active; inhibition [22]: Active; inhibition [23]: inactive; Activity [24]: Active; Activity [25]: Active; Activity [26]: Active; Activity [27]: Active; Activity [28]: Active
FC(F)(F)c1n[nH]cc1-c1nc2ccc3[nH]ncc3c2c2c1CCCC2,39,,,,,,,,8590,71,,,,,,,,,,,Activity [29]: < 2.5%; Activity [30]: < 2.5%; Activity [31]: 4%; Activity [32]: 4%; Activity [33]: 4%; Activity [34]: 4%; Activity [35]: 4%; Activity [36]: < 25%; Activity [37]: < 25%; Activity [38]: < 25%; Activity [39]: < 25%; Activity [40]: < 25%; Activity [41]: < 25%; Activity [42]: < 25%

# Now from value to molecule, other results behind:
IC50 [1] [nM],IC50 [2] [nM],IC50 [3] [nM],IC50 [4] [nM],IC50 [5] [nM],IC50 [6] [nM],IC50 [7] [nM],IC50 [8] [nM],IC50 [19] [nM],IC50 [20] [nM],Compound,IC50 [9] [nM],IC50 [10] [nM],IC50 [11] [nM],IC50 [12] [nM],IC50 [13] [nM],IC50 [14] [nM],IC50 [15] [nM],IC50 [16] [nM],IC50 [17] [nM],IC50 [18] [nM],other results
39,12,52,33,39,> 1000,538,31,7230,7,Fc1cc2[nH]ncc2c2c3c(c(-c4c[nH]nc4C(F)(F)F)nc12)CCCC3,6,28,17,42,180,3740,3460,2240,3880,42,inhibition [21]: Active; inhibition [22]: Active; inhibition [23]: inactive; Activity [24]: Active; Activity [25]: Active; Activity [26]: Active; Activity [27]: Active; Activity [28]: Active
158,1,140,182,158,> 1000,> 1000,7,9200,20,Cc1n[nH]c2cc(F)c3nc(-c4c[nH]nc4C(F)(F)F)c4c(c3c12)CCCC4,7,14,7,48,111,5730,2850,2580,5980,16,inhibition [21]: Active; inhibition [22]: Active; inhibition [23]: inactive; Activity [24]: Active; Activity [25]: Active; Activity [26]: Active; Activity [27]: Active; Activity [28]: Active

# From ChEMBL document CHEMBL4834472 (J Med Chem, 2021)
